Data taken from US20080113956A1, “Substituted Porphyrins” (priority 1997, published 2008).

Test system: mean arterial pressure
Assay: Effect on vascular tone: blood pressure in anesthetized rats
Type: in vivo
Settings: rat; for duration of the hypotensive effect: i.v.
Description: Rats were anesthetized and a femoral vein and carotid artery were cannulated. While blood pressure was monitored by the carotid artery, Mn TM-2-PyP was injected i.v. at doses ranging from 0.1 to 3.0 mg/kg. Mean arterial pressure fell from 100-125 mmHg to 50-60 mmHg within five to ten minutes. The effect was transient, lasting up to 30 minutes at doses of 0.1 to 0.25 mg/kg. […] Scavenging of superoxide in vascular walls would potentiate the effects of nitric oxide producing hypotension.

manganese(III) 5,10,15,20-tetrakis(N-methylpyridyl)porphyrin [MnTM-2-PyP^5+]
mean arterial pressure after injection (i.v. 0.1 to 3.0 mg/kg, fell from 100-125 mmHg within five to ten minutes): 50-60 mmHg | duration of the hypotensive effect (doses of 0.1 to 0.25 mg/kg): up to 30 minutes | duration of the hypotensive effect (doses of 1-3 mg/kg): up to two hours
